By IC50 is commonly meant the concentration that inhibits the measured activity by half. High values mean a need for much substance, low ones inhibition by little substance.

Structures can show the parent of a compound that is named as a salt.

One experiment addresses ATM (Homo sapiens (Human), UniProt Q13315). As to the kind of experiment: ATM in Cell Western Assay (pKAP1 in etoposide-treated MCF-7 cells). Type of experiment: cell-based. The gist of the method: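 Cells received compounds in a 10-dose, 3-fold series from a 1 μM final top concentration, then 100 μM etoposide, for 1 hr at 37° C. They were then fixed with paraformaldehyde and permeabilized with 0.1% Triton X-100. After immunostaining, plates were scanned on an infrared imager.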

For a further experiment, the target named is DNA-PK (Homo sapiens (Human), UniProt P78527). In words: DNA-PK Enzyme-Linked Immunosorbent Assay (phosphorylation of GST-p53 (1-101) peptide). It counts as biochemical. Conditions: ELISA. Summed up:
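ELISA with plate-bound GST-p53 (1-101) phosphorylated by DNA-PK (0.1 μg/mL final) with 20 μM ATP for 1 h at 25 °C. Compounds tested over 10 3-fold doses from 100 nM top final. Phospho-p53 Ser15 detected by antibody, HRP and TMB, absorbance at 450 nm.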
(ELISA stands for enzyme-linked immunosorbent assay.)

Where [1] appears, read: pKAP1 in etoposide-treated MCF-7 cells.
Where [2] appears, read: MCF-7 cells, etoposide 100 μM, 1 hr, pKAP1 readout.

Sequence of ATM (Q13315 whole entry): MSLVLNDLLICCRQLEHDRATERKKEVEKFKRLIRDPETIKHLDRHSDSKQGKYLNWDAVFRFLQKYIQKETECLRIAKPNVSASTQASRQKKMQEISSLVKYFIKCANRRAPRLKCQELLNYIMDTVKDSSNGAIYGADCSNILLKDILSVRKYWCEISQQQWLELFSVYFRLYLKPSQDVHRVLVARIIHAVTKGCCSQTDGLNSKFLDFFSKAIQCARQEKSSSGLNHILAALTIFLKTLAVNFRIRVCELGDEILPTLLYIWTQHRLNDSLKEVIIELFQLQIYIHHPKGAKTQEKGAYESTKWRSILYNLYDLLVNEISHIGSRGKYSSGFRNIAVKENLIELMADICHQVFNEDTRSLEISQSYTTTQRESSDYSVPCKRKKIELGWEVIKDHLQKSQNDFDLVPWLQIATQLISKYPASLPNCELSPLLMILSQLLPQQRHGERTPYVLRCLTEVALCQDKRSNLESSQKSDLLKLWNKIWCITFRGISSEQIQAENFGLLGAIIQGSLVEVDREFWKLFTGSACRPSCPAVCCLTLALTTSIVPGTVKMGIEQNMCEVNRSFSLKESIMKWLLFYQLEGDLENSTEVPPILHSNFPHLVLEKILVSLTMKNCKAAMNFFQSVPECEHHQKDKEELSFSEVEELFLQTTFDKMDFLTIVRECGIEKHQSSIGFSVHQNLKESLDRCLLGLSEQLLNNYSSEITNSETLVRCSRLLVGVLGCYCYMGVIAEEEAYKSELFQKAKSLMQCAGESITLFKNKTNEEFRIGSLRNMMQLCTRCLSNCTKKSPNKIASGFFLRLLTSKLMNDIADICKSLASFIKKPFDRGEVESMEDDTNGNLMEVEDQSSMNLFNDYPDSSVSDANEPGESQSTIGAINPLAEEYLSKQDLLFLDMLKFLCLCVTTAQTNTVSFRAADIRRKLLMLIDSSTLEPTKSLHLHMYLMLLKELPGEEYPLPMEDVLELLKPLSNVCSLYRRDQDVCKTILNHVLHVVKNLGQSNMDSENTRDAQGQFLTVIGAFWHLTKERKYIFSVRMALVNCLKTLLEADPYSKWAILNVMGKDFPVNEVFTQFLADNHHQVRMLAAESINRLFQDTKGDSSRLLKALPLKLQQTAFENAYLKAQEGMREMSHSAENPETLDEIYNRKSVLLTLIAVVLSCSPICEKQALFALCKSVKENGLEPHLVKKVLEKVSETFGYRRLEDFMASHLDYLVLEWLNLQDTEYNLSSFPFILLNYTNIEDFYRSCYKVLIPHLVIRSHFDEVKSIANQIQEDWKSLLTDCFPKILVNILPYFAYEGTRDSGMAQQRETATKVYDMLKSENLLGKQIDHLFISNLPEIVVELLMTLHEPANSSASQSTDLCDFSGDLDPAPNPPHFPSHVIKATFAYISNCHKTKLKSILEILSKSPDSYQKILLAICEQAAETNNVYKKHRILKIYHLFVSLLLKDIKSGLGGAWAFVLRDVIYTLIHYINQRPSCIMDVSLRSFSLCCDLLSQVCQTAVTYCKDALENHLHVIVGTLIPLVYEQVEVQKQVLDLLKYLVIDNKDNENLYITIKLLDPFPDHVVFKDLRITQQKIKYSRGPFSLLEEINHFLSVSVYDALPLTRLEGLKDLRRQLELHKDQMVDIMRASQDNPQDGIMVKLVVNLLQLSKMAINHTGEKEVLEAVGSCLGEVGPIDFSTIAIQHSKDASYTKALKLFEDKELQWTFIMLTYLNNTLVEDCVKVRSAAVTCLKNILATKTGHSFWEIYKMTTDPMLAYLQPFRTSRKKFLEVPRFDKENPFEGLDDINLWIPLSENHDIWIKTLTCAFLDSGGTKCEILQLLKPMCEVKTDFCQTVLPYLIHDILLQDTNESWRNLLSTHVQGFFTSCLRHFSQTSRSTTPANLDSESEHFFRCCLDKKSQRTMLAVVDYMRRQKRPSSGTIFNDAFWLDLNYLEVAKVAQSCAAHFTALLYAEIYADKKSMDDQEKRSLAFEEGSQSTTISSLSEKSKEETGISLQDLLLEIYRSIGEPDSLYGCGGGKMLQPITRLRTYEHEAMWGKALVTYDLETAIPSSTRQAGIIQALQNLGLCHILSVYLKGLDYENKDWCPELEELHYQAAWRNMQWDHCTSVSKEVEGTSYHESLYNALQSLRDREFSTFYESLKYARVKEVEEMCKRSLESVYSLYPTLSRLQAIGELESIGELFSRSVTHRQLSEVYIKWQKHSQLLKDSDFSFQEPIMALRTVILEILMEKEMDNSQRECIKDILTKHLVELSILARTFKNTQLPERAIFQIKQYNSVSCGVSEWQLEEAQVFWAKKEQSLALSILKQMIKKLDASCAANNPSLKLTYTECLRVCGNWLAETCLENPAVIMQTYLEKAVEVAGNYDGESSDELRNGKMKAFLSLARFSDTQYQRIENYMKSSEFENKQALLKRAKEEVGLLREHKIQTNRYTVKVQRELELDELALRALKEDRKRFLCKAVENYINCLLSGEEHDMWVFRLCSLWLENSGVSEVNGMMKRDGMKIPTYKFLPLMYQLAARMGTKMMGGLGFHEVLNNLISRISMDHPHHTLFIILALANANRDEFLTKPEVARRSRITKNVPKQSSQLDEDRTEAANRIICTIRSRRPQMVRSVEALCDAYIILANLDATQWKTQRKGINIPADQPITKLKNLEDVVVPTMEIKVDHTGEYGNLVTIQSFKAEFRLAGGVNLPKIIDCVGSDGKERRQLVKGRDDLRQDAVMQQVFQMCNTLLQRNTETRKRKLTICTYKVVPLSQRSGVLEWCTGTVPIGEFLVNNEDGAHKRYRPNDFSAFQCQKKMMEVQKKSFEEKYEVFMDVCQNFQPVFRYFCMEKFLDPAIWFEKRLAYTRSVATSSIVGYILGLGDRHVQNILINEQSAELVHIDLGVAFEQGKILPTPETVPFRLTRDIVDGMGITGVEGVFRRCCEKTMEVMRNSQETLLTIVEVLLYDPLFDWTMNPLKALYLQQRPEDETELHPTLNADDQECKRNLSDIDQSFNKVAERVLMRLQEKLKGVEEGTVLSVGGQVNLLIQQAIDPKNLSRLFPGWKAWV

Turning to `CC(C)NCCOc1ncc(-c2cc3c(cc2F)ncc2c3[C@]3(C[C@H](Nc4ccc(Cl)cc4)C3)C(=O)N2C)cc1NS(C)(=O)=O` [Example 461, cis-N-(5-(3-((4-Chlorophenyl)amino)-7′-fluoro-3′-methyl-2′-oxo-2′,3′-dihydrospiro[cyclobutane-1,1′-pyrrolo[2,3-c]quinolin]-8′-yl)-2-(2-(isopropylamino)ethoxy)pyridin-3-yl)methanesulfonamide], the IC50 on ATM (setting [1]) and against DNA-PK (20 μM ATP) was 1 to 100 nM each time.
With `CN1C(=O)C2(CCC2)c2c1cnc1ccc(-c3cnc(N4CCC(N5CCOCC5)CC4)c(NS(C)(=O)=O)c3)cc21` [Example 357, N-(5-(3′-Methyl-2′-oxo-2′,3′-dihydrospiro[cyclobutane-1,1′-pyrrolo[2,3-c]quinolin]-8′-yl)-2-(4-morpholinopiperidin-l-yl)Pyridin-3-yl)methanesulfonamide hydrochloride], the IC50 at ATM (setting [1]) and on DNA-PK (20 μM ATP) was 0.5 to 1 nM each time.
For `CC(C)NCCOc1ncc(-c2cc3c(cc2F)ncc2c3[C@]3(C[C@H](c4ccncc4)C3)C(=O)N2C)cc1NS(C)(=O)=O` [Example 438], the 50% inhibitory concentration (IC50) against ATM (setting [1]) and against DNA-PK (20 μM ATP) was 1 to 100 nM throughout.
For `CN1CCN(S(=O)(=O)Nc2cc(-c3ccc4ncc5c(c4c3)C3(CCC3)C(=O)N5C)cnc2OCCCN2CCCCC2)CC1` [Example 200], the IC50 at ATM (setting [2]) was 0.5 to 1 nM; against DNA-PK (ATP 20 μM), under 0.5 nM.
The like results for `CN(C)CCCOc1ncc(-c2ccc3ncc4c(c3c2)C2(CCC2)C(=O)N4C)cc1NS(=O)(=O)C1COC1` [Example 205, N-(2-(3-(Dimethylamino)propoxy)-5-(3′-methyl-2′-oxo-2′,3′-dihydrospiro[cyclobutane-1,1′-pyrrolo[2,3-c]quinolin]-8′-yl)pyridin-3-yl)oxetane-3-sulfonamide] were, in that order, 1 to 100 nM and under 0.5 nM.
The corresponding values for `CN1C(=O)C2(CCC2)c2c1cnc1ccc(-c3cnc(OCCCN4CCCC(F)C4)c(NS(C)(=O)=O)c3)cc21` (centres unmarked) [Example 282, N-(2-(3-(3-Fluoropiperidin-1-yl)propoxy)-5-(3′-methyl-2′-oxo-2′,3′-dihydrospiro[cyclobutane-1,1′-pyrrolo[2,3-c]quinolin]-8′-yl)pyridin-3-yl)methanesulfonamide] are 1 to 100 nM and under 0.5 nM.
Regarding `CN(C)CCCOc1ncc(-c2ccc3ncc4c(c3c2)C2(CC2)C(=O)N4CC2COC2)cc1NS(=O)(=O)c1ccccc1` [Example 37, N-(2-(3-(Dimethylamino)propoxy)-5-(3′-(oxetan-3-ylmethyl)-2′-oxo-2′-3′-dihydrospiro [cyclopropane-1,1′-pyrrolo[2,3-c]quinolin]-8′-yl)pyridin-3-yl)benzenesulfonamide], the IC50 on ATM (setting [2]) and against DNA-PK (ATP 20 μM) was 1 to 100 nM throughout.
As to `CC(C)NCCOc1ncc(-c2ccc3ncc4c(c3c2)C2(CCC2)C(=O)N4C)cc1NS(C)(=O)=O` [Example 281, N-(2-(2-(Isopropylamino)ethoxy)-5-(3′-methyl-2′-oxo-2′,3′-dihydrospiro [cyclobutane-1,1′-pyrrolo[2,3-c]quinolin]-8′-yl)pyridin-3-yl)methanesulfonamide], the concentration for half-maximal inhibition (IC50) at ATM (setting [2]) was in the range of 1 to 100 nM; against DNA-PK (ATP 20 μM) it was 0.5 to 1 nM.
As to `CC(C)NCCOc1ncc(-c2cc3c4c(cnc3cc2F)N(C)C(=O)C42CN(c3cccc(Cl)c3)C2)cc1NS(C)(=O)=O` [Example 524, N-(5-(1-(3-Chlorophenyl)-7′-fluoro-3′-methyl-2′-oxo-2′,3′-dihydrospiro[azetidine-3,1′-pyrrolo[2,3-c]quinolin]-8′-yl)-2-(2-(isopropylamino)ethoxy)pyridin-3-yl)methanesulfonamide], the concentration for half-maximal inhibition (IC50) against ATM (setting [1]) and on DNA-PK (20 μM ATP) was 1 to 100 nM throughout.
Consider `CN1C(=O)C2(CCC2)c2c1cnc1ccc(-c3cnc(OCCCN4CCCCC4)c(NS(=O)(=O)c4cccnc4)c3)cc21` [Example 252, N-(5-(3′-Methyl-2′-oxo-2′,3′-dihydrospiro [cyclobutane-1,1′-pyrrolo [2,3-c]quinolin]-8′-yl)-2-(3-(piperidin-1-yl)propoxy)pyridin-3-yl)pyridine-3-sulfonamide], for which the IC50 against ATM (setting [2]) and against DNA-PK (ATP 20 μM) was 1 to 100 nM throughout.
For the molecule `CN1CCCC(COc2ncc(-c3ccc4ncc5c(c4c3)C3(CC3)C(=O)N5C)cc2NS(=O)(=O)c2ccccc2)C1` (centres unmarked) [Example 84, N-(5-(3′-Methyl-2′-oxo-2′,3′-dihydrospiro[cyclopropane-1,1′-pyrrolo[2,3-c]quinolin]-8′-yl)-2-((1-methylpiperidin-3-yl)methoxy)pyridin-3-yl)benzenesulfonamide], the half-inhibitory concentration (IC50) at ATM (setting [2]) and on DNA-PK (ATP 20 μM) was 1 to 100 nM each time.
For the molecule `CN1C(=O)C2(CCC2)c2c1cnc1ccc(-c3cnc(OCCCN4CCCC4)c(NS(C)(=O)=O)c3)cc21` [Example 236, N-(5-(3′-Methyl-2′-oxo-2′,3′-dihydrospiro[cyclobutane-1,1′-pyrrolo[2,3-c]quinolin]-8′-yl)-2-(3-(pyrrolidin-1-yl)propoxy)pyridin-3-yl)methanesulfonamide], the IC50 was 1 to 100 nM against ATM (setting [2]) and 0.5 to 1 nM against DNA-PK (ATP 20 μM).
In the case of `Cc1ccc(S(=O)(=O)Nc2cc(-c3ccc4ncc5c(c4c3)C3(CC3)C(=O)N5C)cnc2N2CCC(N3CCCCC3)CC2)cn1` [Example 218], the IC50 against ATM (setting [2]) is 1 to 100 nM; on DNA-PK (ATP 20 μM), under 0.5 nM.
Consider `CC(C)NCCOc1ncc(-c2cc3c(cc2F)ncc2c3[C@]3(C[C@H](c4ccccc4)C3)C(=O)N2C)cc1NS(C)(=O)=O` [Example 414, cis-N-(5-(7′-Fluoro-3′-methyl-2′-oxo-3-phenyl-2′,3′-dihydrospiro[cyclobutane-1,1′-pyrrolo[2,3-c]quinolin]-8′-yl)-2-(2-(isopropylamino)ethoxy)pyridin-3-yl)methanesulfonamide hydrochloride], for which the IC50 on ATM (setting [1]) and against DNA-PK (20 μM ATP) was 1 to 100 nM throughout.
`COc1ccc(S(=O)(=O)Nc2cc(-c3ccc4ncc5c(c4c3)C3(CCC3)C(=O)N5C)cnc2OCCCN(C)C)cc1` [Example 144, N-(2-(3-(Dimethylamino)propoxy)-5-(3′-methyl-2′-oxo-2′,3′-dihydrospiro [cyclobutane-1,1′-pyrrolo[2,3-c]quinolin]-8′-yl)pyridin-3-yl)-4-methoxybenzenesulfonamide hydrochloride]: the IC50 against ATM (setting [2]) and against DNA-PK (ATP 20 μM) was 1 to 100 nM throughout.
For `Cc1ccc(S(=O)(=O)Nc2cc(-c3ccc4ncc5c(c4c3)C3(CCC3)C(=O)N5C)cnc2N2CCC(N(C)C)CC2)cc1` [Example 178, N-(2-(4-(Dimethylamino)piperidin-1-yl)-5-(3′-methyl-2′-oxo-2′,3′-dihydrospiro[cyclobutane-1,1′-pyrrolo[2,3-c]quinolin]-8′-yl)pyridin-3-yl)-4-methylbenzenesulfonamide 2,2,2-trifluoroacetate], the results for the IC50 against ATM (setting [2]) and on DNA-PK (ATP 20 μM) were 1 to 100 nM and under 0.5 nM, respectively.
As for `CC(C)NCCOc1ncc(-c2cc3c(cc2F)ncc2c3[C@]3(C[C@@H](c4ccc(Cl)cc4)C3)C(=O)N2C)cc1NS(C)(=O)=O` [Example 417, trans-N-(5-(3-(4-Chlorophenyl)-7′ fluoro-3′-methyl-2′-oxo-2′,3′-dihydrospiro[cyclobutane-1,1′-pyrrolo[2,3-c]quinolin]-8′-yl)-2-(2-(isopropylamino)ethoxy)pyridin-3-yl)methanesulfonamide], the 50% inhibitory concentration (IC50) against ATM (setting [1]) was over 100 nM; on DNA-PK (20 μM ATP), 1 to 100 nM.
On to `CNCCCCOc1ncc(-c2ccc3ncc4c(c3c2)C2(CC2)C(=O)N4C)cc1NS(=O)(=O)c1ccccc1` [Example 75, N-(5-(3-Methyl-2′-oxo-2′,3′-dihydrospiro [cyclopropane-1,1′-pyrrolo[2,3-c]quinolin]-8′-yl)-2-(4-(methylamino)butoxy)pyridin-3-yl) benzenesulfonamide], for which the IC50 against ATM (setting [2]) and against DNA-PK (ATP 20 μM) was 1 to 100 nM each time.
As to `CN(C)CCCOc1ncc(-c2ccc3ncc4c(c3c2)C2(CCC2)C(=O)N4C)cc1NS(C)(=O)=O` [Example 189, N-(2-(3-(Dimethylamino)propoxy)-5-(3′-methyl-2′-oxo-2′,3′-dihydrospiro [cyclobulane-1,1′-pyrrolo[2,3-c]quinolin]-8′-yl)pyridin-3-yl) methanesulfonamide], the values for the IC50 on ATM (setting [2]) and against DNA-PK (ATP 20 μM) were 1 to 100 nM and under 0.5 nM, respectively.
For `CC1CCCN(S(=O)(=O)Nc2cc(-c3ccc4ncc5c(c4c3)C3(CCC3)C(=O)N5C)cnc2OCCCN(C)C)C1` (centres unmarked) [Example 175, N-(2-(3-(Dimethylamino)propoxy)-5-(3′-methyl-2′-oxo-2′,3′-dihydrospiro [cyclobutane-1,1′-pyrrolo[2,3-c]quinolin]-8′-yl)pyridin-3-yl)-3-methylpiperidine-1-sulfonamide], the IC50 against ATM (setting [2]) and at DNA-PK (ATP 20 μM) was 1 to 100 nM each time.
For `CC(C)NCCOc1ncc(-c2cc3c(cc2F)ncc2c3[C@]3(C[C@H](OC(C)c4ccccc4)C3)C(=O)N2C)cc1NS(C)(=O)=O` (stereo partly drawn) [Example 397, cis-N-(5-(7′-Fluoro-3′-methyl-2′-oxo-3-(1-phenylethoxy)-2′,3′-dihydrospiro[cyclobutane-1,1′-pyrrolo[2,3-c]quinolin]-8′-yl)-2-(2-(isopropylamino)ethoxy)pyridin-3-yl)methanesulfonamide], the values for the IC50 at ATM (setting [1]) and on DNA-PK (20 μM ATP) were 1 to 100 nM and under 0.5 nM, respectively.
Regarding `CCS(=O)(=O)Nc1cc(-c2ccc3ncc4c(c3c2)C2(CCC2)C(=O)N4C)cnc1N1CC(N(C)C)C1` [Example 318, N-(2-(3-(Dimethylamino)azetidin-1-yl)-5-(3′-methyl-2′-oxo-2′,3′-dihydrospiro [cyclobulane-1,1′-pyrrolo[2,3-c]quinolin]-8′-yl)pyridin-3-yl)etlianesulfonamide], the IC50 lay within 1 to 100 nM at ATM (setting [2]) and 0.5 to 1 nM on DNA-PK (ATP 20 μM).

For the origin of these results see patent US12187742B2 (XRAD Therapeutics, Inc., priority 2018, dated 2025).
